Source: EP4691485A1, “MUCOSAL ADJUVANT” (priority 2023, dated 2024)

Columns and labels:
Type in all cases: in vivo, BALB/c mice
[1] = system: A/Singapore/GP1908/2015(IVR-180)(H1N1)pdm09; details: HA 0.1 µg alone or with 3 µg adjuvant, nasal, twice; for Serum HI antibody titers, Geometric Mean Titer (GMT): 3-week interval, serum day 38
[2] = system: HA antigen (A/Singapore/GP1908/2015(IVR-180)(H1N1)pdm09); experiment: ELISA of antigen-specific IgA and IgG after nasal vaccination (Example 1); details: HA 0.1 µg alone or with 3 µg adjuvant, twice; for antigen-specific IgA level in the nasal lavage fluid: day 38, 2^2-fold dilution, Fig. 2; for antigen-specific IgG level in serum: day 38, 2^12-fold dilution, Fig. 3
[3] = system: influenza virus (A/Singapore/GP1908/2015(IVR-180)(H1N1)pdm09); details: HA 0.1 µg alone or with 3 µg adjuvant, twice, 3-week interval, sampled day 38, Fig. 1
[4] = system: Influenza HA protein antigen (A/California/7/2009(H1N1)pdm); experiment: ELISA of antigen-specific IgA and IgG after nasal vaccination with CL401, CL413 or CL531 (Example 2); details: 1 µg HA alone or with 0.662 nmol or 6.62 nmol test compound
[5] = system: Influenza virus HA protein antigen A/Guangdong-Maonan/SWL1536/2019(CNIC-1909)(H1N1); experiment: ELISA of antigen-specific IgA and IgG, improved formulation with chondroitin sulfate sodium (Example 4); details: Fig. 7
Procedure: For the nasal administration test, 7-week-old female BALB/c mice were used, with 8 mice per group. Influenza virus HA protein antigen A/Guangdong-Maonan/SWL1536/2019(CNIC-1909)(H1N1) (Research Foundation for Microbial Diseases of Osaka University) was used. Vaccine groups included HA 0.1 µg alone, or HA 0.1 µg with 0.1 µg of TY001 S-form as adjuvant, and groups with/without 0.01% chondroitin sulfate sodium as an additive.
The vaccine solution was administered intranasally to mice at 5 µL per nostril (10 µL/mouse) twice, with a 3-week interval. Two weeks after the second administration (day 35), nasal lavage fluid and serum were collected, and antigen-specific IgA levels in nasal lavage fluid and IgG levels in serum were measured by ELISA.

[6] = system: influenza virus: A/Guangdong-Maonan/SWL1536/2019(CNIC-1909)(H1N1); experiment: Infection protection test: viral titer in nasal wash fluid (Example 5)
Procedure: (§1) For the nasal administration test, 7-week-old female BALB/c mice (9-10 mice per group) were used. Influenza virus HA protein antigen: A/Guangdong-Maonan/SWL1536/2019(CNIC-1909)(H1N1) and influenza virus: A/Guangdong-Maonan/SWL1536/2019(CNIC-1909)(H1N1) (Osaka University Microbial Disease Research Institute) were used. The vaccine formulations included HA 0.1 µg alone, and a formulation containing HA 0.1 µg co-administered with TY001 S-form at doses of 0.01-0.3 µg, and 0.01% chondroitin sulfate sodium as an additive. Vaccine solutions were administered into the nasal cavity, 5 µL into each nostril (10 µL/mouse), twice at a 3-week interval. As a control, a group subcutaneously administered with HA 0.1 µg alone was set up. Two weeks after the second administration (day 35), viral fluid was administered at 2 µL into each nostril (1x10^5 TCID50/mouse). Three days later (day 38), nasal wash fluid and serum were collected. The viral titer in the nasal wash fluid, antigen-specific IgA in nasal wash fluid, and IgG in serum were measured by ELISA.

[7] = system: Influenza virus HA protein antigen: A/Guangdong-Maonan/SWL1536/2019(CNIC-1909)(H1N1); experiment: ELISA of antigen-specific IgA and IgG after vaccination and virus challenge (Example 5); details: twice, HA 0.1 µg alone or with TY001 S-form 0.01-0.3 µg and 0.01% chondroitin sulfate sodium
Procedure: as §1

SARS-CoV-2 S protein = experiment: ELISA of antigen-specific IgA and IgG after nasal vaccination with SARS-CoV-2 antigen (Example 3); details: 3 µg S protein alone or with 0.3 µg TY001 S-form
[8] = system: Influenza virus HA protein antigen: A/Guangdong-Maonan/SWL1536/2019(CNIC-1909)(H1N1); experiment: Comparative test with various adjuvants: ELISA of antigen-specific IgA and IgG (Example 6); details: HA 0.1 µg + 1 µg TY001 S-form (0.01% chondroitin sulfate sodium), twice
Procedure: For the nasal administration test, 8-week-old female BALB/c mice (6 mice per group) were used. Influenza virus HA protein antigen: A/Guangdong-Maonan/SWL1536/2019(CNIC-1909)(H1N1) (Osaka University Microbial Disease Research Institute) was used. Vaccine formulations included HA 0.1 µg alone, and those co-administered intranasally with 1 µg of TY001 S-form (formulation containing 0.01% chondroitin sulfate sodium as an additive), Cholera Toxin B subunit (CTB) (Fujifilm Wako Pure Chemical Corporation), CpG ODN (ODN 1826) (InvivoGen), or Polyinosinic-polycytidylic acid (Poly(I:C)) (InvivoGen). Each vaccine solution was administered into the nasal cavity, 5 µL into each nostril (10 µL/mouse), twice at a 3-week interval. A group subcutaneously administered with HA 0.1 µg + Alum 2 mg was also used. Two weeks after the second administration (day 35), nasal wash fluid, bronchoalveolar lavage fluid, and serum were collected. Antigen-specific IgA in nasal wash fluid and bronchoalveolar lavage fluid, and IgG in serum and bronchoalveolar lavage fluid were measured by ELISA.

[9] = HA 0.1 µg + 0.1 µg TY001 S-form + 0.01% chondroitin sulfate sodium, compared with no additive
[10] = HA 0.1 µg + 0.1 µg TY001 S-form, nasal, twice, 3-week interval, day 35

## CCCCCCCCCCCCCCCC(=O)OC[C@H](CSC[C@H](N)C(=O)NCCCNCCCCNCCCNC(=O)CNC(=O)c1ccc(Cn2c(O)nc3c(N)nc(NCCCC)nc32)cc1)OC(=O)CCCCCCCCCCCCCCC [TY001 R-form, (20R,24R)-20-amino-1-(4-((6-amino-2-(butylamino)-8-hydroxy-9H-purin-9-yl)methyl)phenyl)-1,4,19-trioxo-22-thia-2,5,9,14,18-pentaazapentacosane-24,25-diyl dipalmitate]
[1]
  HI antibody titer in serum: showed an increase
  Serum HI antibody titers, Geometric Mean Titer (GMT): 69.6
[2]
  antigen-specific IgA level in the nasal lavage fluid: showed induction of antigen-specific IgA antibodies in the nasal cavity
  antigen-specific IgG level in serum: showed an increase
[3]
  viral titer in the nasal lavage fluid: showed suppression of viral infection

## CCCCCCCCCCCCCCCC(=O)OCC(CSC[C@H](N)C(=O)Nc1ccc(Cn2c(O)nc3c(N)nc(NCCCC)nc32)cc1)OC(=O)CCCCCCCCCCCCCCC (some centres unmarked) [CL401]
[4]; day 0 and day 14, day 27, rank order, Fig. 4 lower panel
  antigen-specific IgG antibodies in plasma: CL413 > CL531 > CL401
[4]; day 0 and day 14, day 28, rank order, Fig. 4 upper panel
  antigen-specific IgA in nasal lavage fluid: CL413 > CL531 > CL401

## CCCCCCCCCCCCCCCC(=O)OC[C@@H](CSC[C@H](N)C(=O)NCCCNCCCCNCCCNC(=O)CNC(=O)c1ccc(Cn2c(O)nc3c(N)nc(NCCCC)nc32)cc1)OC(=O)CCCCCCCCCCCCCCC [TY001 S-form, (20R,24S)-20-amino-1-(4-((6-amino-2-(butylamino)-8-hydroxy-9H-purin-9-yl)methyl)phenyl)-1,4,19-trioxo-22-thia-2,5,9,14,18-pentaazapentacosane-24,25-diyl dipalmitate]
[5]; [9]
  antibody-inducing effect, IgA in nasal wash fluid: stronger
  antibody-inducing effect, IgG in serum: stronger
[5]; [10]
  antigen-specific IgA in nasal wash fluid: induced
  antigen-specific IgG in serum: induced
[1]
  HI antibody titer in serum: showed an increase
  Serum HI antibody titers, Geometric Mean Titer (GMT): 85.7
[6]; HA 0.1 µg + TY001 S-form 0.1 µg + 0.01% chondroitin sulfate sodium, Fig. 8
  viral titer in nasal wash fluid: no virus detected in any individual
[6]; HA 0.1 µg + TY001 S-form 0.3 µg + 0.01% chondroitin sulfate sodium, Fig. 8
  viral titer in nasal wash fluid: no virus detected in any individual
[6]; twice, HA 0.1 µg alone or with TY001 S-form 0.01-0.3 µg and 0.01% chondroitin sulfate sodium, virus 1x10^5 TCID50/mouse day 35, day 38, Fig. 8
  viral titer in nasal wash fluid: dose-dependent inhibition of viral infection
[7]; nasal, day 38, Fig. 9
  antigen-specific IgG in serum: dose-dependent induction of nasal IgA and serum IgG
[7]; day 38, Fig. 9
  antigen-specific IgA in nasal wash fluid: dose-dependent induction of nasal IgA and serum IgG
[2]
  antigen-specific IgA level in the nasal lavage fluid: showed induction of antigen-specific IgA antibodies in the nasal cavity
  antigen-specific IgG level in serum: showed an increase
SARS-CoV-2 S protein; day 0 and 21, day 35, 2^3-fold dilution, Fig. 5
  antigen-specific IgA level in the nasal lavage fluid: showed induction of antigen-specific IgA antibodies in the nasal cavity
SARS-CoV-2 S protein; day 0 and 21, day 35, 2^8-fold dilution, Fig. 6
  antigen-specific IgG level in serum: showed an increase in antigen-specific IgG antibodies
[3]
  viral titer in the nasal lavage fluid: showed suppression of viral infection
[8]; nasal, day 35, Fig. 10
  antigen-specific IgA in bronchoalveolar lavage fluid: also induced
  antigen-specific IgG in bronchoalveolar lavage fluid: also induced
[8]; compared with CTB, CpG ODN (ODN 1826), Poly(I:C) nasal and Alum 2 mg subcutaneous, day 35, Fig. 10
  antibody-inducing ability (antigen-specific IgA in nasal wash fluid and bronchoalveolar lavage fluid, IgG in serum and bronchoalveolar lavage fluid): stronger antibody-inducing ability at a lower dose compared to any other adjuvant
